Key:
HMEC-1 [1] = assay: PGE2-induced vascular endothelial cell migration (scratch assay); type: cell-based, human; details: 2 hours pretreatment; 20 μM PGE2, 24 hours; FIG. 9
Experimental: Human vascular endothelial cells (HMEC-1) were seeded in a 12-well plate at a density of 2×10^5 cells per well and cultured in an incubator for 24 hours at 37° C. under 5% CO2. After the cells in each well were grown to 80% confluency, the central part of each well was scratched using a yellow pipette tip. Next, each well was pretreated with each concentration of isookanin for 2 hours and then treated with 20 μM PGE2 and incubated for 24 hours. As a negative control, 100 ng/ml of VEGF was used. After 24 hours of incubation, the degree of vascular cell migration was observed using a microscope, and the results were photographed with a microscope camera and shown in FIG. 9.

PGE2 [2] = assay: UV-induced PGE2 secretion in human epidermal keratinocytes (ELISA); type: cell-based; details: 1, 5 and 10 ppm, UVB 20 mJ/cm^2, FIG. 6
Experimental: Human epidermal keratinocytes (HEKs) were seeded in a 24-well microplate at a density of about 2×10^5 cells per well, and cultured in an incubator for 24 hours at 37° C. under 5% CO2. Thereafter, the cells were treated with each of 1, 5, and 10 ppm of isookanin, and then irradiated with UV light (UVB 20 mJ/cm^2), and then the cell culture medium was collected. Next, the secretion level of PGE2 was measured using an ELISA kit. As a negative control (−), human keratinocytes not treated with isookanin and UV light (UVB) were used.

HMEC-1 [3] = assay: PGE2-induced vascular endothelial cell tube formation on Matrigel; type: cell-based, human; details: 10 ppm, 2 hours pretreatment; 20 μM PGE2, 24 hours; FIGS. 10 and 11
Experimental: Human vascular endothelial cells (HMEC-1) were seeded in a Matrigel-coated 24-well plate at a density of 1.2×10^5 cells per well, and each well was pretreated with 10 ppm of isookanin for 2 hours. Next, each well was treated with PGE2 at a concentration of 20 μM and incubated for 24 hours. As a negative control, 100 ng/ml of VEGF was used. After 24 hours of incubation, the degree of vascular cell tube formation was observed using a microscope, and the results were photographed with a microscope camera and analyzed with Image J, and are shown in FIGS. 10 and 11.

TLR-2 = biological target: T1, TLR-2 (Homo sapiens, UniProt O60603); assay: Chitin-induced TLR-2 activation, HEK-Blue TLR2 SEAP reporter cells; type: cell-based; details: 1 hour pretreatment, then chitin for 12 hours; FIG. 3
T1 construct: host or cells: HEK-Blue TLR2 cell line
Experimental: The anti-inflammatory effect of isookanin by inhibition of TLR-2 activation was measured. The HEK-Blue™ TLR2 cell line (InvivoGen, USA) co-transfected with TLR-2 and SEAP (secreted embryonic alkaline phosphatase) reporter genes was used. The SEAP reporter gene contains transcription factors NF-kB and AP-1 binding sites, and thus when NF-kB and AP-1 are activated by TLR-2 activation, SEAP is produced and secreted extracellularly. Specifically, the HEK-Blue™ TLR2 cell line was cultured in DMEM containing 10% FBS, and then seeded in a 48-well plate at a density of 1×10^5 cells per well, and pretreated with isookanin for 1 hour. Next, the cells were treated with chitin (Carbosynth, USA) and cultured again for 12 hours. Here, chitin is a component of demodex and is known as a major trigger of inflammatory rosacea. […] 20 μl of the culture supernatant of the cells cultured for 12 hours was taken, mixed with 80 μl of QUANTI-Blue™ (InvivoGen, USA), and then incubated at 37° C. for 1 hour. The degree of TLR-2 activation was measured by comparing the degree of color development caused by the reaction between Quanti-Blue and extracellularly secreted SEAP, and the results are shown in FIG. 3.

HMEC-1 [4] = assay: PGE2-induced vascular endothelial cell proliferation (MTT assay); type: cell-based, human; details: 1 hour pretreatment; 20 μM PGE2, 48 hours; FIG. 8
Experimental: Human microvascular […] cells (HMEC-1, ATCC, USA) were cultured in MCDB131 medium (Thermo Fisher, USA) containing 10 ng/ml EGF, 1 μg/mL cortisol, 10 mM glutamine and 10% FBS, and then seeded in a 24-well plate at a density of 5×10^4 cells per well and cultured in an incubator for 24 hours at cultured at 37° C. under 5% CO2. After culturing, each well was pretreated with each concentration of isookanin for 1 hour, and then treated with 20 μM PGE2 and cultured again for 48 hours. After 48 hours of culturing, the degree of vascular cell proliferation was measured using MTT assay, and the results are shown in FIG. 8.

PGE2 [5] = assay: LPS-induced PGE2 secretion in RAW 264.7 macrophages (ELISA); type: cell-based, mouse; details: 1, 5 and 10 ppm, LPS 100 ng/mL, FIG. 7
Experimental: Mouse macrophages (RAW 264.7) were seeded in a 24-well microplate at a density of about 2×10^5 cells per well, and cultured in an incubator for 24 hours at 37° C. under 5% CO2. Thereafter, the cells were treated with each of 1, 5 and 10 ppm of isookanin, and then treated with LPS (100 ng/mL) and cultured, and then the cell culture medium was collected. Next, the secretion level of PGE2 was measured using an ELISA kit. As a negative control group (−), mouse macrophages not treated with isookanin and LPS were used.

COX-2 promoter = assay: LPS-induced COX-2 promoter luciferase reporter in RAW 264.7 macrophages; type: cell-based, mouse; details: 1, 5 and 10 ppm, LPS 100 ng/mL, FIG. 4
Experimental: Mouse macrophages (RAW 264.7) were seeded in a 24-well microplate at a density of about 2×10^5 cells per well, and cultured in an incubator for 24 hours at 37° C. under 5% CO2. The RAW264.7 cells were transfected with the COX-2 promoter luciferase reporter plasmid, and then treated with 1, 5, and 10 ppm of isookanin, and then treated with LPS (100 ng/mL). After culturing, the cell culture was harvested. Subsequently, luciferase enzyme activity was measured using a microplate reader (Sunrise, Tecan, Switzerland). Mouse macrophages not treated with isookanin and LPS were used as a negative control (−).

T1 sequence (O60603 21-784): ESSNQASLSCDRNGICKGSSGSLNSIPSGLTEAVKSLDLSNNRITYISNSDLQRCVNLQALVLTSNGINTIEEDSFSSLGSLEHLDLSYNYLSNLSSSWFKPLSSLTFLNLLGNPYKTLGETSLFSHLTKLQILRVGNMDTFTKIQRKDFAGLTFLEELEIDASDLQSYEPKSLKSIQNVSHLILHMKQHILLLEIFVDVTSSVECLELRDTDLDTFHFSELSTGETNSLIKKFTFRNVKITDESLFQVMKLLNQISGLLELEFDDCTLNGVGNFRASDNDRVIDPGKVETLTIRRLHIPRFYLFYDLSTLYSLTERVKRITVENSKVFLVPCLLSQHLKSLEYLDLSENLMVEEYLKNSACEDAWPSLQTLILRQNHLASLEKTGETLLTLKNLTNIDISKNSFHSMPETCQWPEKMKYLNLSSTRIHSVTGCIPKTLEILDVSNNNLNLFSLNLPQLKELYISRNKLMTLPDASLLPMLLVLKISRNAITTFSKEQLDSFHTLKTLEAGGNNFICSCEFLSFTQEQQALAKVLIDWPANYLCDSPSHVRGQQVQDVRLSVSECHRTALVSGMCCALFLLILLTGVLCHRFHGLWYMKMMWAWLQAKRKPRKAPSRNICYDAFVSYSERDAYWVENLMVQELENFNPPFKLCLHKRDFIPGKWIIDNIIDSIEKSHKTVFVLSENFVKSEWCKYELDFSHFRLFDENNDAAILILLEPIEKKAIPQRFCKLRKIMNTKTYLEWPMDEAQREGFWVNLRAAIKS

Question: With `O=C1C[C@@H](c2ccc(O)c(O)c2)Oc2c1ccc(O)c2O` [isookanin] as the compound, how does the “inhibition of human vascular endothelial cell migration induced by PGE2” value (HMEC-1 [1]) read?
Answer: effectively inhibiting human vascular endothelial cell migration induced by PGE2

Question: And the “inhibition of UV-induced PGE2 expression” value (PGE2 [2])?
Answer: inhibiting the expression of PGE2 in a concentration-dependent manner

Question: And the “inhibition of human vascular endothelial cell tube formation induced by PGE2” value (HMEC-1 [3])?
Answer: effectively inhibiting human vascular endothelial cell tube formation induced by PGE2

Question: And the “inhibition of chitin-induced activation of TLR-2 signaling” value (TLR-2)?
Answer: effectively inhibiting the chitin-induced activation of TLR-2 signaling

Question: What about the “inhibition of human vascular endothelial cell proliferation induced by PGE2” value (HMEC-1 [4]) of the same compound?
Answer: effectively inhibiting human vascular endothelial cell proliferation induced by PGE2

Question: What about the “inhibition of LPS-induced PGE2 expression” value (PGE2 [5]) of the same compound?
Answer: inhibiting the LPS-induced expression of PGE2 in a concentration-dependent manner

Question: And the “inhibition of LPS-induced activation of COX-2 promoter” value (COX-2 promoter)?
Answer: inhibiting the LPS-induced activation of COX-2 promoter in a concentration-dependent manner
